{"source": "patent EP2810648A1", "about": "“Targeting domain-domain interaction for the identification of kinase modulators” (Rauh, Daniel, priority 2013, dated 2014)", "target": "T1, Human Akt1 (UniProt entry P31749) (Homo sapiens, UniProt P31749, C296S/C310S/C344S/E49C)", "T1 construct": "made in house; host or cells: baculovirus, TriEx Sf9 cells", "T1 sequence (P31749 whole entry E49C/C296S/C310S/C344S, one chain of several)": "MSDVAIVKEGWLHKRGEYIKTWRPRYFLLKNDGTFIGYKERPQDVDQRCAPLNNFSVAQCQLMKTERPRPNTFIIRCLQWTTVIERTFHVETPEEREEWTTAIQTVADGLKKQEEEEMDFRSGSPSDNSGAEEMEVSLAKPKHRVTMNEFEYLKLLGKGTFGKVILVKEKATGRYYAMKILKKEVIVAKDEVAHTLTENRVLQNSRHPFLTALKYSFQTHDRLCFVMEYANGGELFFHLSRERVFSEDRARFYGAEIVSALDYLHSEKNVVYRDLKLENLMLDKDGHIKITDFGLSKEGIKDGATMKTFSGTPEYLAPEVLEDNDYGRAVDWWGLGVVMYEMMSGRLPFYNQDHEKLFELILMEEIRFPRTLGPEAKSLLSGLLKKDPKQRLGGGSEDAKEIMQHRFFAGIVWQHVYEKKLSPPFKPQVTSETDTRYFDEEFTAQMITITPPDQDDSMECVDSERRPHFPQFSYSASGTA", "assay": "iFLiK assay (fluorophore-labeled Akt1 binding assay)", "conditions": "for effect on PyMPO fluorescence (emission spectrum): PyMPO-labeled Akt1", "procedure": "Measurements were carried out in black 384-well plates (Greiner Bio One). Labeled Akt1 was diluted to 200 nM in the measurement buffer consisting of 50 mM HEPES pH 7.4, 200 mM NaCl and 0.01% Triton-X 100. Dilution series of candidate compounds were prepared in DMSO at 21X the final desired concentration. Compounds (0.5 µL) were then mixed with labeled Akt1 (10 µL) in triplicates and with measurement buffer only in quadruplicates at 12 different concentrations to achieve final compound concentrations ranging from 0.8 nM to […]. Each well contained 5% v/v DMSO after mixing. Plates were then covered with an adhesive plastic foil and incubated for 2 h at RT prior to measurement of emission intensities at fluorophore-specific wavelengths (Table 1) using a Tecan Infinite M1000 plate reader. Compound auto-fluorescence was compensated by subtraction of the average background signals obtained in the absence of labeled kinase. The respective assay readout for the various Akt-fluorophore conjugates specified in Table 1 were fit to a Hill 4-parameter equation to determine Kd values for allosteric Akt ligands. Each reaction was performed in triplicate and at least three independent measurements of each Kd were determined for each ligand. Table 1: Overview of fluorophore probes.\nScreening initiatives were carried out in black 384-well plates (Greiner Bio One). PyMPO-labeled Akt1 was diluted to 200 nM in the measurement buffer consisting of 50 mM HEPES pH 7.4, 200 mM Nacl and 0.01% Triton-X 100. Each candidate compound was prepared in DMSO at 210 µM. Compounds (0.5 µL) were then mixed each with labeled Akt1 (10 µL) and with measurement buffer only to achieve final compound concentrations of 10 µM. Each well contained 5% v/v DMSO after mixing. Plates were then covered with an adhesive plastic foil and incubated for 2 h at RT prior to measurement using a Tecan Infinite M1000 plate reader emission intensities at 508 nm and 638 nm, using both 419 nm and 440 nm for excitation. Compound auto-fluorescence was compensated by subtraction of the average background signals obtained in the absence of labeled kinase. Ratio of fluorescence intensities fl638/fl508 were calculated from the background-subtracted values. For hit picking criteria, see Table 2 below.", "data": [{"compound": "NC1(Cc2ccc(Cl)cc2)CCN(c2ncnc3[nH]ccc23)CC1", "note": "[CCT128930]", "values": [{"measurement": "effect on PyMPO fluorescence (emission spectrum)", "value": "no effect"}]}, {"compound": "CCn1c(-c2nonc2N)nc2c(C#CC(C)(C)O)ncc(OC[C@H]3CCCNC3)c21", "note": "[GSK690693]", "values": [{"measurement": "effect on PyMPO fluorescence (emission spectrum)", "value": "no effect"}, {"measurement": "response of the labeled kinase", "setting": "collection of fluorophore-labeled kinases, dilution series 0.8 nM to 50 µM", "value": "unresponsive"}]}, {"compound": "NC1(c2ccc(-c3nc4ccn5c(=O)[nH]nc5c4cc3-c3ccccc3)cc2)CCC1", "note": "[MK-2206]", "values": [{"measurement": "effect on PyMPO fluorescence (emission spectrum)", "value": "bathochromic shift"}]}, {"compound": "O=C(O[C@@H]1Cc2c(O)cc(O)cc2O[C@@H]1c1cc(O)c(=O)c2c(O)c(O)cc([C@H]3Oc4cc(O)cc(O)c4C[C@H]3O)c2c1)c1cc(O)c(O)c(O)c1", "note": "[XX8]", "values": [{"measurement": "effect on PyMPO fluorescence (emission spectrum)", "value": "reduction of the fluorescence intensity"}]}]}
